# Measured values from US11731964B2, “Benzamide antibacterial agents” (Purdue Research Foundation, priority 2018, dated 2023).
# Where two headings read alike, the source gives them in different places.
# Key:
# Escherichia coli BW25113 = test: MIC against Gram-negative pathogens; type: cell-based
# Description: (§1) Bacteria were cultured in cation-adjusted Mueller Hinton Broth (for strains in Tables 1 and 4) or Brain Heart Infusion broth (for Enterococcus faecium) or Tryptic Soy Broth (all other bacteria) in a 96-well plate at 37° C. for at least 20 hours. The MIC was classified as the lowest concentration where no visual growth of bacteria was observed. The minimum bactericidal concentration (MBC) was tested by spotting 4 μL from wells with no growth onto Tryptic Soy Agar (TSA) plates. Plates were incubated at 37° C. for at least 18 hours before recording the MBC.
# [1] = test system: Escherichia coli JW5503-1 (ΔtolC); test: MIC against Gram-negative pathogens (efflux pump knockout); type: cell-based
# Description: as §1
# MRSA ATCC 33592 = test: MIC, broth microdilution; type: cell-based; details: Staphylococcus aureus; MRSA ATCC 33592; read-out: MIC
# Description: as §1
# E. faecalis = test: MIC (Table 5, strain not given); type: cell-based; details: Enterococcus faecalis; E. faecalis (Table 5)
# Description: as §1
# L. monocytogenes = test: MIC (Table 5, strain not given); type: cell-based; details: Listeria monocytogenes; L. monocytogenes (Table 5)
# Description: as §1
# S. aureus = test: MIC (Table 5, strain not given); type: cell-based; details: Staphylococcus aureus; S. aureus (Table 5)
# Description: as §1
# VRE = test: MIC (Table 5, strain not given); type: cell-based; details: Enterococcus; VRE (Table 5)
# Description: as §1
# [2] = test system: Clostridium difficile ATCC 43255; test: Clostridium difficile inhibition analysis; type: cell-based; details: Table 7, C. difficile ATCC 43255
# [3] = test system: C. difficile NR-32883 (P2); test: Clostridium difficile inhibition analysis; type: cell-based; details: Table 7, C. difficile NR-32883 (P2)
# [4] = test system: C. difficile NR-32891 (P13); test: Clostridium difficile inhibition analysis; type: cell-based; details: Table 7, C. difficile NR-32891 (P13)
# [5] = test system: C. difficile NR-32895 (P19); test: Clostridium difficile inhibition analysis; type: cell-based; details: Table 7, C. difficile NR-32895 (P19)
# [6] = test system: C. difficile NR-32904 (P30); test: Clostridium difficile inhibition analysis; type: cell-based; details: Table 7, C. difficile NR-32904 (P30)
# [7] = test system: C. difficile NR-13432 (isolate 6); test: Clostridium difficile inhibition analysis; type: cell-based; details: Table 7, C. difficile NR-13432 (isolate 6)
# [8] = test system: C. difficile NR-13435 (isolate 9); test: Clostridium difficile inhibition analysis; type: cell-based; details: Table 7, C. difficile NR-13435 (isolate 9)
# MRSA NRS119 = test: MIC and MBC; type: cell-based, Staphylococcus aureus; details: MRSA NRS119
# Description: as §1
# VISA NRS1 = test: MIC and MBC; type: cell-based, S. aureus; details: Staphylococcus aureus, VISA NRS1
# Description: as §1
# VRSA VRS12 = test: MIC and MBC; type: cell-based, S. aureus; details: Staphylococcus aureus, VRSA VRS12
# Description: as §1
# E. faecium ATCC = test: MIC and MBC; type: cell-based; details: Enterococcus faecium, E. faecium ATCC
# Description: as §1
# MRSA NRS123 (USA400) = test: MIC and MBC; type: cell-based; details: Staphylococcus aureus, MRSA NRS123 (USA400)
# Description: as §1
# MRSA NRS384 (USA300) = test: MIC and MBC; type: cell-based; details: Staphylococcus aureus, MRSA NRS384 (USA300)
# Description: as §1
# MRSA NRS385 (USA500) = test: MIC and MBC; type: cell-based; details: Staphylococcus aureus, MRSA NRS385 (USA500)
# Description: as §1
# MRSA NRS386 (USA700) = test: MIC and MBC; type: cell-based; details: Staphylococcus aureus, MRSA NRS386 (USA700)
# Description: as §1
# MRSA NRS387 (USA800) = test: MIC and MBC; type: cell-based; details: Staphylococcus aureus, MRSA NRS387 (USA800)
# Description: as §1
# MRSA USA300 = test: Time-kill analysis; type: cell-based, Staphylococcus aureus
# Description: The time-kill analysis was performed as previously described^29. […] Aliquots (100 μL) were collected from each treatment after 0, 2, 4, 8, 12, and 24 hours of incubation at 37° C. and subsequently serially diluted in phosphate-buffered saline (PBS). Bacteria were then transferred to TSA plates and incubated at 37° C. for 18-20 hours before viable CFU/mL was determined.
structure (smiles),measurement,setting,value
CC[C@H]1OC(=O)[C@H](C)[C@@H](O[C@H]2C[C@@](C)(OC)[C@@H](O)[C@H](C)O2)[C@H](C)[C@@H](O[C@@H]2O[C@H](C)C[C@H](N(C)C)[C@H]2O)[C@](C)(O)C[C@@H](C)C(=O)[C@H](C)[C@@H](O)[C@]1(C)O [Erythromycin],MIC,"Escherichia coli BW25113; Escherichia coli BW25113 (wild-type), read-out: MIC",32 µg/mL
same,MIC,[1],≤ 1 µg/mL
"C[C@@H]1C[C@H](C)CN(S(=O)(=O)c2ccc(C(=O)Nc3nnc(-c4ccc(C(F)(F)F)cc4)o3)cc2)C1 [HSGN-94, 4-(((3S,5R)-3,5-dimethylpiperidin-1-yl)sulfonyl)-N-(5-(4-(trifluoromethyl)phenyl)-1,3,4-oxadiazol-2-yl)benzamide]",MIC,MRSA ATCC 33592,0.25 µg/mL
same,MIC,E. faecalis,2 µg/mL
same,MIC,L. monocytogenes,0.5 µg/mL
same,MIC,S. aureus,0.25 µg/mL
same,MIC,VRE,1 µg/mL
same,Antibacterial activity,[2],0.06
same,Antibacterial activity,[3],0.06
same,Antibacterial activity,[4],0.125
same,Antibacterial activity,[5],0.06
same,Antibacterial activity,[6],0.125
same,Antibacterial activity,[7],0.06
same,Antibacterial activity,[8],0.06
CC(=O)NC[C@H]1CN(c2ccc(N3CCOCC3)c(F)c2)C(=O)O1 [Linezolid],MIC,MRSA NRS119,inactive
same,MBC,"MRSA NRS119; Staphylococcus aureus, read-out: MBC",32 µg/mL
same,MIC,"MRSA NRS119; Staphylococcus aureus, read-out: MIC",32 µg/mL
same,MBC,VISA NRS1; read-out: MBC,1 µg/mL
same,MIC,VISA NRS1; read-out: MIC,≤ 1 µg/mL
same,MBC,VRSA VRS12; read-out: MBC,32 µg/mL
same,MIC,VRSA VRS12; read-out: MIC,≤ 1 µg/mL
same,MBC,E. faecium ATCC; read-out: MBC,64 µg/mL
same,MIC,E. faecium ATCC; read-out: MIC,≤ 1 µg/mL
same,MBC,MRSA NRS123 (USA400); read-out: MBC,64 µg/mL
same,MIC,MRSA NRS123 (USA400); read-out: MIC,≤ 1 µg/mL
same,MBC,MRSA NRS384 (USA300); read-out: MBC,64 µg/mL
same,MIC,MRSA NRS384 (USA300); read-out: MIC,≤ 1 µg/mL
same,MBC,MRSA NRS385 (USA500); read-out: MBC,2 µg/mL
same,MIC,MRSA NRS385 (USA500); read-out: MIC,≤ 1 µg/mL
same,MBC,MRSA NRS386 (USA700); read-out: MBC,128 µg/mL
same,MIC,MRSA NRS386 (USA700); read-out: MIC,≤ 1 µg/mL
same,MBC,MRSA NRS387 (USA800); read-out: MBC,128 µg/mL
same,MIC,MRSA NRS387 (USA800); read-out: MIC,≤ 1 µg/mL
same,MIC,"Escherichia coli BW25113; Escherichia coli, BW25113",> 128 µg/mL
same,MIC,[1],8 µg/mL
same,reduction in MRSA USA300 (time-kill),"MRSA USA300; 3×MIC, after a 24-hour incubation period",2.16 log10
same,in vitro effect against MRSA USA300,MRSA USA300; time-kill analysis and MBC,bacteriostatic
